Reference: patent US20240100023A1, “Compositions and Methods For Treating Spinal Cord Injuries” (priority 2020, published 2024)
“Also recorded” adds a separate entry of the source.

Columns and labels:
Swiss Webster mice = test: PTZ proconvulsant test; format: in vivo, Mouse; settings: 30 mg/kg or less p.o., 30 minutes before PTZ infusion
Description: Follow on studies of CX717 and 1739 are continuing, employing additional well-known models for SCI drug efficacy, coupled with a variety of ongoing safety studies. Preliminary safety studies already completed have included a range of toxicity studies focusing on critical convulsant risks widely observed for previously-studied ampakines. Using the well-known PTZ Proconvulsant test, non-GLP safety studies were conducted to examine proconvulsant activity of CX717. Swiss Webster mice (n=12/group) were dosed with CX717 (3, 10 or 30 mg/kg p.o.), vehicle (0.5% methocel p.o.) or a positive control, CGS8216 (10 mg/kg in 70% PEG300: 30% water i.p.). Thirty minutes later, the GABA-A antagonist, pentylenetetrazol (PTZ) was infused in the tail vein until tonic seizures were observed. The time at which the first clonic and tonic seizure was observed was noted and used to determine the dose of PTZ necessary to induce both clonic and tonic seizure.

[1] = test system: adult patients with Attention-Deficit Hyperactive Disorder (ADHD); test: Phase 2 randomized, double-blind, 2-period crossover study in adult ADHD; format: in vivo, human; settings: for ADHD-RS hyperactivity subscale mean score: ITT
Description: *This phase 2 study evaluated the efficacy, tolerability and safety of CX717 in the treatment of adult patients with Attention-Deficit Hyperactive Disorder (ADHD). The study was designed and executed as a randomized, double-blind, multi-center, 2-period crossover study comparing 2 doses of CX717 (200 mg, or 800 mg, BID) with placebo. Each treatment period lasted 3 weeks with a 2-week washout in between. Subjects met DSM-IV criteria for adult ADHD and had moderate to severe symptoms. The primary efficacy measure was the change from baseline on the ADHD Rating Scale (ADHD-RS) with adult ADHD prompts. A total of 68 male subjects, who were 19 to 50 years old and met criteria of Adult ADHD as defined by DSM IV, were randomized After accounting for early study dropouts, 51 subjects (75%) returned for efficacy assessments and completed both treatment periods (intent-to-treat population). […] Treatment with CX717 was well tolerated with no clinically significant changes in cardiovascular and other safety parameters with either dose. Sleep disturbances and headache were the most frequently reported adverse events.
The present study further examined the clinical efficacy, tolerability and safety of CX717 as a drug treatment for adults with ADHD. Eligible subjects were randomized to 1 of 4 possible treatment sequences in which they received placebo (P) and either high dose (H) or low dose (L) of active treatment in random order (PL, PH, LP, and HP). Each treatment period was 3 weeks in duration with a 2-week washout in between. The study design was modeled after several similarly published ADHD studies with atomoxetine and stimulants, with sample sizes in the mid-20s. Since this is the first such study with CX7171 in ADHD, it is assumed that efficacy would be achieved using historical assumptions in effect size, therefore, a total of 60 subjects were to be randomized.
All patients met DSM-IV criteria for adult ADHD, established by the Adult ADHD Clinical Diagnostic Scale (ACDS) Version 1.2. All patients gave written informed consent prior to enrollment and the conduct of the study was approved by either the […] Review Board (IRB) at each site or by the central IRB. Each subject had at least moderately severe ADHD symptoms (ADHD-RS score of ≥22; Clinician's Global Impression of Severity [CGI-S] score of ≥4). Each subject was male, and between 18-50 years old, inclusively. Male patients were selected because the necessary reproductive toxicology studies that would have allowed women of childbearing potential to be included in the study had not been completed.
Subjects were excluded if they were taking medication specifically for treatment of ADHD symptoms (e.g., stimulants, atomoxetine, tricyclic antidepressants, or bupropion). ADHD treatments were discontinued (stimulants for 2 weeks and non-stimulant for 4 weeks) prior to the Period 1 baseline visit. Subjects were also excluded if they were taking antidepressants, anticonvulsants, or antipsychotics.
CX717 capsules were administered orally as 200 mg BID or 800 mg BID doses. Matching placebo capsules were identical in appearance to the capsules containing active drug, and were administered orally. The study was divided into a series of periods: screening period—up to 4 weeks, treatment period 1-3 weeks; wash-out period—2 weeks; treatment period 2-3 weeks; follow-up period—approximately 1 week.
ADHD recovery drug efficacy was assessed using the Adult ADHD Rating Scale (DuPaul, 1998) with prompts ([…]) (Adler & Cohen, 2004). The primary efficacy outcome measure was the comparison of each dose of CX717 versus placebo on the change from baseline in ADHD symptoms as measured by the ADHD-RS at Week 3. Secondary efficacy parameters included comparisons of each dose of CX717 versus placebo for the ADHD-RS Inattentiveness Subscale Score of the ADHD-RS.
Safety was evaluated by adverse events (AEs), clinical laboratory tests, vital signs, physical examination, and electrocardiograms (ECGs). […]

hippocampal slices = settings: male, Sprague-Dawley, rat
[2] = test system: non-selective alpha1 adrenergic receptor; test: Alpha1 adrenergic receptor radioligand binding; settings: 100 μM
[3] = high dose (800 mg BID), after 3 weeks

SMILES: O=C(c1ccc2nonc2c1)N1CCOCC1 [CX717, 1-(benzofurazan-5-ylcarbonyl)morpholine]
- Dose of PTZ required to elicit a seizure (proconvulsant activity) (Swiss Webster mice): did not decrease the dose of PTZ required to elicit a seizure
- ADHD-RS outcome measures, low dose versus placebo ([1]; 200 mg BID): no statistically significant differences; also recorded: did not differ from placebo
- ADHD-RS total and subscales, high dose versus placebo, repeated measures analysis ([1]; 800 mg BID, at endpoint): superior efficacy compared to placebo
- ADHD-RS hyperactivity subscale mean score ([1]; active dose (both doses), last value): −4.10
- Difference from placebo in mean change of ADHD-RS total score [1, 3]: −4.73
- Mean change from baseline of ADHD-RS total score [1, 3]: −9.95
- ADHD-RS hyperactivity subscale mean score ([1]; high dose, Week 1): −4.22
- ADHD-RS hyperactivity subscale mean score ([1]; high dose, Week 3): −5.68
- ADHD-RS hyperactivity subscale mean score ([1]; high dose, last value): −5.57
- Concentration at which seizure activity is seen in hippocampal slices (hippocampal slices): > 600 µM

SMILES: CN(C(=O)c1ccc2nonc2c1)C1CCOCC1 [CX1739, N-Methyl-N-tetrahydro-2H-pyran-4-yl-[2,1,3]-benzoxadiazole-5-carboxamide]
- Inhibition of reference ligand binding, non-selective alpha1 adrenergic receptor [2]: 67%
